According to US4868195A, “Novel enolamides, pharmaceutical compositions and methods of use thereof for activity as modulators of the arachidonic acid cascade” (Warner-Lambert Company, priority 1988, dated 1989):
“And” between values parts separate entries of the source, which are not always exact repeats. Identical values can stand only once.

Tests used:
[1] = tested on: Human Leukocyte Lipoxygenase; experiment: Human Leukocyte Lipoxygenase Assay (LDA-H); assay type: biochemical; settings: for IC50: acetone-pentane powder enzyme, 234 nm, 24° C., 5 min preincubation, read-out: Concentration (M) for 50.0 % Inhibition, IC (LDAH)
Experimental: Human Leukocyte Lipoxygenase Assay (LDA-H)
Whole blood is collected from normal volunteers and spun in a refrigerated centrifuge for four minutes at 1°-6° C. at 3800 g. The buffy coat is manually separated and washed twice with chilled 0.83% NH4 Cl and centrifuged at 1000 RPM for ten minutes at 4° C. The white cell is suspended in culture media-EMEM supplemented with 6% Agamma human serum, tricine buffer, and neomycin and recentrifuged at 1000 g to yield a pellet containing the leukocytes used for the preparation of the acetone pentane powder.
The acetone-pentane powder is prepared utilizing a modification of the procedure reported for human platelet lipoxygenase. See Siegel, et al, Arachidonate Metabolism via Lipoxygenase and 12-L-hydroperoxy-5 Eicosatetraenoic Acid Peroxidase Sensitive to Antiinflammatory Drugs, Proc. Natl. Acad. Sci., USA 77: 308, 1980 and D. P. Wallach and V. R. Brown, A Novel Preparation of Human Platlet Lipoxygenase, Biochem. Biophys. Acta. 663: 361, 1981. Buffy coat prepared above is resuspended in 5-7 volumes of cold 0.1M Tris buffer, pH 7.4 containing 0.154M NaCl. The suspension is centrifuged at 13,300 g for ten minutes at 4° C. The resultant pellet is retained, resuspended in five volumes of cold acetone, recentrifuged at 13,300 g and resuspended in five volumes of cold pentane. The pentane suspension is centrifuged for ten minutes at 13,300 g to give a pellet which is dried in the cold under vacuum with periodic pulverization. The dry powder is stable for several weeks when stored at -80° C.
Enzyme stock solution is prepared in the following manner. About 15 mg of the acetone-pentane powder is suspended in 4 ml of cold tris buffer (0.1M, pH 7.4), allowed to stand for five minutes, and homogenized thoroughly. The homogenate is sonicated three times for 15 seconds each time, diluted to 7 ml with cold tris buffer (0.1M, pH 7.4), and centrifuged at 4° C. for 60 minutes at 13,300 g. the supernatent is retained and diluted to a total of 10 ml with cold tris buffer (0.1M, pH 7.4) to give the stock enzyme solution. Additional dilutions of 2-50 fold are done as necessary to locate optimal enzyme reaction rate in the assay described below.
Substrate solution is prepared at 100 μM or 1.0 μM concentrations of arachidonic acid or linoleic acid in 0.1M tris buffer, pH 9.0 containing 20% ethanol.
The enzyme reaction is followed spectrophotometrically by the appearance of a conjugated diene product at 234 nm. The reaction is monitored at 24° C. using a Gilford Model 2600 spectrophotometer. […] The effects of inhibitors on the reaction are compared with control reactions run under indentical conditions. Routinely, each compounds of the present invention is incubated with the enzyme for five minutes prior to addition of substrate to initiate the reaction. Inhibition expressed as IC50 as molar concentration of the compound required to reduce reaction rate to 50% control.

[2] = biological target: T1, leukotriene receptor (guinea pig lung membranes) (Cavia porcellus, UniProt Q2NNR5); experiment: Binding of ^3 H-Leukotriene D4 to Guinea Pig Lung Membranes (RBL); settings: 0.2 nM ^3 H-LTD4, 60 min, 25° C.; read-out: Concentration (M) for 50.0 % Inhibition, IC (RBL)
T1 construct: 20 mg original tissue wet weight of guinea pig lung; tissue Kuiper Rabbit Farm, Gary, IN (animals); host or cells: guinea pig lung, crude membranes
T1 sequence (Q2NNR5 1-340): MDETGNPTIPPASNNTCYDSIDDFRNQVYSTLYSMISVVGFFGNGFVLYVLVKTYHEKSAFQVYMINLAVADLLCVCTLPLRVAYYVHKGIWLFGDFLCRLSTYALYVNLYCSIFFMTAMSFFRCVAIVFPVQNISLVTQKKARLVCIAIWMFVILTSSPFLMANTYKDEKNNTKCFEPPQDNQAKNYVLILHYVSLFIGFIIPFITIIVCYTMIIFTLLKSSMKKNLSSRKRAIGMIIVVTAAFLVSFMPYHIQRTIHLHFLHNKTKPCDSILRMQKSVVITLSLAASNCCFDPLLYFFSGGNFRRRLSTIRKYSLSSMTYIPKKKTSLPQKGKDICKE
Experimental: Additionally, the activity, of the compounds having the Formula I of the present invention is determined by the well known leukotriene receptor binding assay that is described by R. F. Bruns, W. J. Thomsen and T. A. Pugsley in Life Sciences, 33, 645 (1983) or the Herxheimer in vivo antiallergy test described in H. Herxheimer, J. Physiol. (London), Vol. 177, p. 251 (1952).
Binding of ^3 H-Leukotriene D4 to Guinea Pig Lung Membranes (RBL)
[14,15-^3 H]leukotriene D4 (^3 H-LTD4) (25 Ci/mmol and 40 Ci/mmol) is purchased from New England Nuclear. Unlabeled LTC4 is a gift of Ono Pharmaceuticals (Japan). LTC4, LTD4, and LTE4 are purchased as methyl esters from Paesel GmbH (Frankfurt, W. Germany). Concentrations of the Paesel leukotrienes are calculated from their absorbance at 280 nm. Leukotriene esters are saponified overnight under N2 in 3.3% potassium carbonate at room temperature. Tritiated leukotrienes are stored as received from New England Nuclear at -20° C. Ono LTC4 (5 μg/ml) is stored at -60° C. in phosphate buffer pH 6.8. Saponified Paesel leukotrienes are stored at -60° C. in 3.3% potassium carbonate (pH 9.0-9.5). Aliquots of leukotrienes are taken from stock solutions immediately after thawing, after which the stock solutions are immediately refrozen. 2-Amino-2-(hydroxymethyl)-1,3-propanediol (Tris) is Sigma pH 7.7 pre-set crystals, and dimethylsulfoxide is Aldrich Gold Label.
Preparation of crude lung membranes
Two pairs of lungs (1.3 g) from freshly sacrificed 300 g male guinea pigs (older animals gave substantially lower binding) from Kuiper Rabbit Farm, Gary, IN are disrupted with a Polytron PT 10 (setting 4) for 30 seconds in 20 ml ice-cold 50 mM Tris adjusted with HCl to pH 7.7 at 25° C. (Tris buffer), filtered through a single layer of gauze to remove connective tissue, and centrifuged at 50,000 xg for ten min. The pellet is resuspended by homogenization with a Polytron in 20 ml Tris buffer, centrifuged at 50,000 xg for ten min., resuspended, incubated at 37° C. for 30 minutes, and centrifuged again. The final pellet is resuspended in Tris buffer and either used fresh or stored at -70° C.
All incubations are in triplicate for 60 minutes at 25° C. in 12×75 mm polystyrene tubes containing 1 ml Tris buffer with 20 mg original tissue wet weight of guinea pig lung nmembranes, 0.2 nM ^3 H-LTD4 (6,000-11,000 cpm), 10 mM MgCl2, and 1% dimethylsulfoxide Leukotrienes are diluted in Tris buffer. All other test compounds dissolved at 10 mM in dimethylsulfoxide on the same day as the experiment, and diluted in dimethylsulfoxide to 100× the final incubation concentration. Control incubations receive an equal volume (10 μl) of dimethylsulfoxide; the resulting concentration of dimethylsulfoxide had no effect on binding. ^3 H-LTD4 is diluted to 2 nM in Tris buffer. The membrane suspension (20 mg/0.89 ml) contains sufficient MgCl2 to give 10 mM final concentration in the incubation. […] All additions are performed at 0° C. Immediately after the last addition, the incubation is initiated by agitating the rack of tubes on a vortex mixer and warming to 25° C. in a water bath. Tubes are vortexed at least once more during the incubation to ensure that the membranes remained suspended. Incubations are terminated after 60 minutes by filtering under reduced pressure through 25 mm Whatman GF/B filters followed by rapid washing three times with 4 ml of ice-cold Tris buffer. Filters are added to scintillation vials with 8 ml Formula 947 (New England Nuclear), left overnight, shaken, and the radioactivity counted in a scintillation counter (efficiency 40%). Nonspecific binding, defined as binding of ^3 H-LTD4 in the presence of 100 nM LTC4, is 300-500 cpm for all lots of ^3 H-LTD4. Binding to the filters in the absence of tissue is about 100 cpm, and is not affected by unlabeled LTC4. Specific binding, defined as total binding minus nonspecific binding, varied considerably from lot to lot of ^3 H-LTD4. […]

## COc1ccc(CCc2ccc(NC(=O)C(=O)C3=C(O)c4ccccc4S(=O)(=O)C3)cc2)cc1OC [Example 3, N-[4-[2-(3,4-Dimethoxyphenyl)ethyl)phenyl]-4-hydroxy-α-oxo-2H-1-benzothiopyran-3-acetamide, 1,1-dioxide]
[1]; Concentration 1.00 E -5 M
  % Inhibition (LDAH): 0.0%
[1]; Concentration 2.50 E -5 M
  % Inhibition (LDAH): 0.0%

## O=C(Nc1ccc(CCc2ccc(Cl)cc2)cc1)C(=O)C1=C(O)c2ccccc2SC1 [Example 4, N-[4-[2-(4-chlorophenyl)ethyl]phenyl]-4-hydroxy-α-oxo-2H-1-benzothiopyran-3-acetamide]
[1]
  IC50: 4.5e-05 M

## CCCCCCCCCCc1ccc(NC(=O)C(=O)C2=C(O)c3ccccc3S(=O)(=O)C2)cc1 [Example 9, N-(4-Decylphenyl)-4-hydroxy-α-oxo-2H-1-benzothiopyran-3-acetamide, 1,1-dioxide]
[1]
  IC50: 7.7e-05 M

## O=C(O)c1ccc(CCc2ccc(NC(=O)C3CS(=O)(=O)c4ccccc4C3=O)cc2)cc1 (stereo not shown) [Example 12, 4-[2-[4-[[(3,4-Dihydro-4-oxo-2H-1-benzothiopyran-3-yl)carbonyl]amino]phenyl]ethyl]benzoic acid, 1,1-dioxide]
[1]
  IC50: 3.4e-06 M

## O=C(Nc1ccc(Cc2ccc(O)c(O)c2)cc1)C1CS(=O)(=O)c2ccccc2C1=O (stereo not shown) [Example 14, N-[4-[(3,4-Dihydroxyphenyl)methyl]phenyl]-3,4-dihydro-4-oxo-2H-1-benzothiopyran-3-carboxamide, 1,1-dioxide]
[1]; Concentration 2.50 E -5 M
  % Inhibition (LDAH): 0.0%

## O=C(Nc1ccc(CCCCc2ccc(O)c(O)c2)cc1)C1CS(=O)(=O)c2ccccc2C1=O (stereo not shown) [Example 23, N-[4-[4-(3,4-Dihydroxyphenyl)butyl]phenyl]-3,4-dihydro-4-oxo-2H-1-benzothiopyran-3-carboxamide, 1,1-dioxide]
[1]; Concentration 2.50 E -5 M
  % Inhibition (LDAH): 0.0%

## O=C(Nc1ccc(CCc2cc(O)c(O)c(O)c2)cc1)C1=C(O)c2ccccc2S(=O)(=O)C1 [Example 36]
[1]; Concentration 2.50 E -5 M
  % Inhibition (LDAH): 0.0%

## COc1ccc(CCc2ccc(NC(=O)C3CS(=O)(=O)c4ccccc4C3=O)cc2)cc1NC(C)=O (stereo not shown) [Example 50, N-[4-[2-(3-Acetylamino-4-methoxy)ethyl]phenyl]-3,4-dihydro-4-oxo-2H-1-benzothiopyran-3-carboxamide, 1,1-dioxide]
[1]; Concentration 8.00 E -5 M
  % Inhibition (LDAH): 0.0%

## Nc1ccc(CCc2ccc(NC(=O)C3CS(=O)(=O)c4ccccc4C3=O)cc2)cc1 (stereo not shown) [Example 52, N-[4-[2-(4-Aminophenyl)ethyl]phenyl]-3,4-dihydro-4-oxo-2H-1-benzothiopyran-3-carboxamide, 1,1-dioxide]
[1]
  IC50: 6e-05 M

## CN(C)c1ccc(CCc2ccc(NC(=O)C3CS(=O)(=O)c4ccccc4C3=O)cc2)cc1 (stereo not shown) [Example 55]
[1]
  IC50: 6.8e-05 M

## COc1ccc(CCc2ccc(NC(=O)c3oc4ccc5ccccc5c4c3O)cc2)cc1OC [Example 103, Naptho[2,1-b]furan-2-carboxamide, 1-hydroxy-N-[4-[2-(3,4-dimethoxyphenyl)ethyl]phenyl]]
[1]
  IC50: 1.1e-06 M

## COc1ccc(CCc2ccc(NC(=O)C(=O)c3oc4cc(OC)c(OC)cc4c3O)cc2)cc1OC [Example 115, 2-Benzofuranacetamide, N-[4-[2-(3,4-dimethoxyphenyl)ethyl]phenyl]-3-hydroxy-5,6-dimethoxy-α-oxo]
[1]; Concentration 8.00 E -5 M
  % Inhibition (LDAH): 0.0%

## COc1ccc(CCc2ccc(NC(=O)C(=O)C3Oc4cc5ccccc5cc4C3=O)cc2)cc1OC (stereo not drawn) [Example 117, Naptho[2,3-b]furan-2-acetamide, N-[4-[2-(3,4-dimethoxyphenyl)ethyl]phenyl]-2,3-dihydro-α,3-dioxo]
[1]; Concentration 2.50 E -5 M
  % Inhibition (LDAH): 0.0%

## CCCCCCCCCCc1ccc(NC(=O)C(=O)c2oc3cc(OC)c(OC)cc3c2O)cc1 [Example 119, 2-Benzofuranacetamide, N-[4-decylphenyl]-3-hydroxy-5,6-dimethoxy-α-oxo]
[1]; Concentration 7.90 E -9 M
  % Inhibition (LDAH): 50.0%

## COc1cccc2c(O)c(C(=O)C(=O)Nc3ccc(CCc4ccc(O)c(O)c4)cc3)oc12 [Example 123, 2-Benzofuranacetamide, N-[4-[2-(3,4-dihydroxyphenyl)ethyl]phenyl]-3-hydroxy-7-methoxy-α-oxo]
[1]
  IC50: 2.5e-05 M

## COc1ccc(CCc2ccc(NC(=O)C(=O)c3sc4ccccc4c3O)cc2)cc1OC [Example 131, N-[4-[2-(3,4-Dimethoxyphenyl)ethyl]phenyl]-3-hydroxy-α-oxo-benzo[b]thiophene-2-acetamide]
[2]
  IC50: 4.4e-06 M

## O=C(Nc1ccc(CCc2ccc(Cl)c(Cl)c2)cc1)c1sc2ccccc2c1O [Example 144]
[2]
  IC50: 5e-06 M and 6.43e-06 M and 3.28e-06 M

## O=C(Nc1ccc(CCc2cc(C(F)(F)F)cc(C(F)(F)F)c2)cc1)c1sc2ccccc2c1O [Example 148, Benzo[b]thiophene-2-carboxamide, N-[4-[2-[3,5-bis(trifluoromethyl)phenyl]ethyl]phenyl]-3-hydroxy]
[2]
  IC50: 0.0001 M
